Test results reported in ChEMBL document CHEMBL4321883 (J Med Chem, 2020).
Active and inactive are the calls of the source. The calls are words filed in the database; no cut-off is given here.

Assays:
Endothelial lipase [1] = target: T1, Endothelial lipase (Homo sapiens, UniProt Q9Y5X9); experiment: Inhibition of EL in human HT1080 cells using D31-POPC-HDL as substrate incubated for 2 hrs in presence of human serum by LC/MS analysis; type: cell-based
T1 sequence (Q9Y5X9 whole entry): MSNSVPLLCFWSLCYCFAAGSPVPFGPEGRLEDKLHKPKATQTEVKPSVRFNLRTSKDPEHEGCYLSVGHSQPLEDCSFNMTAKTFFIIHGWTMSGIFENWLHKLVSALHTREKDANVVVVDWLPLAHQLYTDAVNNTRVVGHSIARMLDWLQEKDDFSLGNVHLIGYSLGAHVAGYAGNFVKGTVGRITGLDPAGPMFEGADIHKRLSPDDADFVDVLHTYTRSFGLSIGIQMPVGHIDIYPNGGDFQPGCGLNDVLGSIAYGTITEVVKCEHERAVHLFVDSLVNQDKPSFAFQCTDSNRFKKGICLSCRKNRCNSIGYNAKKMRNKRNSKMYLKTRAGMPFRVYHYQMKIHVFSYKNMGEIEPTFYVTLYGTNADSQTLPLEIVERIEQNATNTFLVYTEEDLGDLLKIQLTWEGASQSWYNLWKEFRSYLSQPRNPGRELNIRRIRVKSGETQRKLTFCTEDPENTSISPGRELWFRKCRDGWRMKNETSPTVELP

Mus musculus [2] = experiment: Antihyperlipidemic activity in C57BL/6 mouse assessed as increase in HDL-C level at 50 mg/kg, ip qd administered as nanosuspension for 2 days measured 6 hrs post-last dose by LC-MS/MS analysis relative to control; type: functional
[3] = Metabolic stability in rat liver microsomes assessed as compound remaining at 0.5 uM incubated for 10 mins; type: ADME, Microsome; settings: read-out: Stability
Homo sapiens = species: Homo sapiens; experiment: Selectivity index, ratio of IC50 for human HL expressed in […] cells to IC50 for EL in human HT1080 cells; type: cell-based
[4] = Metabolic stability in mouse liver microsomes assessed as compound remaining at 0.5 uM incubated for 10 mins; type: ADME, Microsome; settings: read-out: Stability
[5] = Metabolic stability in human liver microsomes assessed as compound remaining at 0.5 uM incubated for 10 mins; type: ADME, Microsome; settings: read-out: Stability
Endothelial lipase [6] = target: T1, Endothelial lipase; experiment: Inhibition of EL in human HT1080 cells using A10070 as substrate preincubated for 20 min followed by DMPG vesicle doped substrate addition and measured at 20 secs interval for 10 mins by fluorescence assay; type: cell-based
[7] = Plasma concentration in C57BL/6 mouse at 50 mg/kg, ip administered as nanosuspension measured after 24 hrs by LC-MS/MS analysis; type: ADME, organism-based
[8] = AUC (0 to 24 hrs) in C57BL/6 mouse at 50 mg/kg, ip administered as nanosuspension measured after 24 hrs by LC-MS/MS analysis; type: ADME, organism-based; design: dose 50 mg/kg, time < 24 hr, route intraperitoneal; settings: in vivo
[9] = target: T2, Hepatic triacylglycerol lipase (Homo sapiens, UniProt P11150); experiment: Inhibition of human HL […] using A10070 as substrate preincubated for 20 min followed by DMPG vesicle doped substrate addition and measured at 20 secs interval for 10 mins by fluorescence assay; type: cell-based
T2 sequence (P11150 whole entry): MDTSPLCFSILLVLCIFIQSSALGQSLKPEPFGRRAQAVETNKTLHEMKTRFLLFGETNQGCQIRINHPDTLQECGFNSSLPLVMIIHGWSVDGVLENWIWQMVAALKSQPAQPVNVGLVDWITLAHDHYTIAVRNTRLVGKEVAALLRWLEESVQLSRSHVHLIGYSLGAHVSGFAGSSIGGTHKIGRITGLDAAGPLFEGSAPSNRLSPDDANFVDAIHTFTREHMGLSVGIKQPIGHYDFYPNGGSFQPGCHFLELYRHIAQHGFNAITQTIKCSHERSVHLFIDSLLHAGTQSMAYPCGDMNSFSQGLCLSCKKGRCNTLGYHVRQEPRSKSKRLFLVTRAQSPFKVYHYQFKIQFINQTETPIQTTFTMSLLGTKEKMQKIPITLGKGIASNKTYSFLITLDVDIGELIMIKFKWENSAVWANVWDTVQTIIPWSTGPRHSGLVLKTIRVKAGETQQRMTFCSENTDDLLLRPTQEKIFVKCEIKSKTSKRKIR

[10] = Cmax in C57BL/6 mouse at 50 mg/kg, ip administered as nanosuspension measured after 24 hrs by LC-MS/MS analysis; type: ADME, organism-based; design: dose 50 mg/kg, route intraperitoneal; settings: in vivo
Endothelial lipase [11] = target: T3, Endothelial lipase (Mus musculus, UniProt Q9WVG5); experiment: Inhibition of endothelial lipase in hepatic lipase knock-out mouse plasma; type: cell-free
T3 sequence (Q9WVG5 whole entry): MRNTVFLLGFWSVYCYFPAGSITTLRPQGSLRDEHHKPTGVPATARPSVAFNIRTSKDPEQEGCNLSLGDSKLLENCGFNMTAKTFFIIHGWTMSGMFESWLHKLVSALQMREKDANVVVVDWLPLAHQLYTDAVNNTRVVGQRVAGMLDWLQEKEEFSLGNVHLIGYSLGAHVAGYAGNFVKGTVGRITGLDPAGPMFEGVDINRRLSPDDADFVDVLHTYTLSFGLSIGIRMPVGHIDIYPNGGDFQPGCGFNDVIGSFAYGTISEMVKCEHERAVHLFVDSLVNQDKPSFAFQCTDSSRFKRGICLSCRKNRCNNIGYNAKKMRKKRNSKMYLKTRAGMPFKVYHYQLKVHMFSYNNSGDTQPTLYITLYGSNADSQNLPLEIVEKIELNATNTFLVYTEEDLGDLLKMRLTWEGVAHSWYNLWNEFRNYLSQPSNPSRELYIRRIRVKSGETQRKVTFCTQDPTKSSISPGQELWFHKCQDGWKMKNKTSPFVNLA

Endothelial lipase [12] = target: T1, Endothelial lipase; experiment: Inhibition of EL in human HT1080 cells using D31-POPC-HDL as substrate incubated for 2 hrs in presence of mouse plasma by LC/MS analysis; type: cell-based
[13] = Plasma concentration in C57BL/6 mouse at 50 mg/kg, ip qd administered as nanosuspension for 2 days measured 6 hrs post-last dose by LC-MS/MS analysis; type: ADME, organism-based
Mus musculus [14] = experiment: Antihyperlipidemic activity in HL knock out C57BL/6 mouse assessed as increase in HDL-C level at 50 mg/kg, ip qd administered as nanosuspension for 2 days measured 6 hrs post-last dose by LC-MS/MS analysis relative to control; type: functional
[15] = Plasma concentration in EL knock out C57BL/6 mouse at 50 mg/kg, ip qd administered as nanosuspension for 2 days measured 6 hrs post-last dose by LC-MS/MS analysis; type: ADME, organism-based
Mus musculus [16] = experiment: Induction of macrophage-mediated [3H]-cholesterol efflux in C57BL/6 mouse at 50 mg/kg, ip qd administered as nanosuspension for 3 days followed by [3H]-cholesterol addition on day 3 and measured after 2.5 hrs relative to control; type: functional
[17] = Plasma concentration in C57BL/6 mouse at 50 mg/kg, po measured after 24 hrs by LC-MS/MS analysis; type: ADME, organism-based
Mus musculus [18] = experiment: Antihyperlipidemic activity in hCETP/apoB-100 dual transgenic C57BL/6 mouse assessed as effect on LDL-C level at 50 mg/kg, ip bid administered as nanosuspension for 2 days measured 6 hrs post-last dose by FPLC analysis; type: functional, organism-based
Mus musculus [19] = experiment: Antihyperlipidemic activity in hCETP/apoB-100 dual transgenic C57BL/6 mouse assessed as increase in HDL-C level at 50 mg/kg, ip bid administered as nanosuspension for 2 days measured 6 hrs post-last dose by FPLC analysis relative to control; type: functional
[20] = Plasma concentration in C57BL/6 mouse at 50 mg/kg, sc measured after 24 hrs by LC-MS/MS analysis; type: ADME, organism-based
[21] = Plasma concentration in HL knock out C57BL/6 mouse at 50 mg/kg, ip qd administered as nanosuspension for 2 days measured 6 hrs post-last dose by LC-MS/MS analysis; type: ADME, organism-based
Mus musculus [22] = experiment: Antihyperlipidemic activity in EL knock out C57BL/6 mouse assessed as increase in HDL-C level at 50 mg/kg, ip qd administered as nanosuspension for 2 days measured 6 hrs post-last dose by LC-MS/MS analysis relative to control; type: functional, organism-based

SMILES | IC50 (Endothelial lipase [1]) | remaining at 10 min, 0.5 µM [4] | remaining at 10 min, 0.5 µM [5] | IC50 (Endothelial lipase [6]) | concentration at 24 h [7] | IC50 [9] | IC50 (Endothelial lipase [11]) | IC50 (Endothelial lipase [12]) | Activity (Mus musculus [2]) | further results
NS(=O)(=O)NCc1nnc(C(=O)c2nc3cc(F)c(C(=O)NCC(F)(F)F)cc3s2)o1 | 50 nM | > 80% | 87% | < 0.5 nM | 250 nM | 4 nM | 200 nM |  | 37.8 - 38% | remaining at 10 min, 0.5 µM [3]: > 80%; Ratio IC50 (Homo sapiens): 8; AUC(0-t) at 24 h [8]: 58 µM·h; Cmax [10]: 7100 nM
NS(=O)(=O)NCc1nnc(C(=O)c2nc3cc(-c4ccc5c(c4)CNC5=O)c(F)cc3s2)o1 |  |  |  |  | 460 nM |  |  |  | 36.9 - 37% | 

Second part, led by results:

IC50 (Endothelial lipase [1]) | remaining at 10 min, 0.5 µM [4] | remaining at 10 min, 0.5 µM [5] | IC50 (Endothelial lipase [6]) | concentration at 24 h [7] | IC50 [9] | IC50 (Endothelial lipase [11]) | IC50 (Endothelial lipase [12]) | SMILES | Activity (Mus musculus [2]) | further results
7000 nM |  |  | 20 nM |  | 3 nM |  | 1000 nM | CN(Cc1nnc(C(=O)c2nc3ccc(-c4ccccc4)cc3s2)o1)S(N)(=O)=O |  | 
1000 nM |  |  | 30 nM |  | > 10 nM |  | 1000 nM | NC(=O)NCc1nnc(C(=O)c2nc3ccc(-c4ccccc4)cc3s2)o1 |  | 
200 nM | 100% | 98% | < 0.5 nM |  | 4 nM | 200 nM |  | NS(=O)(=O)NCc1nnc(C(=O)c2nc3cc(-c4ccc(C(=O)NCC(F)(F)F)cc4)c(F)cc3s2)o1 |  | 
 |  |  |  | 500 nM |  |  |  | NS(=O)(=O)NCc1nnc(C(=O)c2nc3ccc(-c4ccccc4)cc3s2)o1 | 56% | concentration at 6 h [13]: 520 nM; Activity (Mus musculus [14]): 31.7 - 32%; concentration at 6 h [15]: 8500 nM; Activity (Mus musculus [16]): 53%; concentration at 24 h [17]: 250 nM; Activity (Mus musculus [18]): inactive; Activity (Mus musculus [19]): 36%; concentration at 24 h [20]: 190 nM; concentration at 6 h [21]: 11000 nM; Activity (Mus musculus [22]): inactive
